{
  "source": "patent US11033640B2",
  "about": "“Enteric CT contrast material based on low-z atoms” (priority 2013, dated 2021)",
  "system": "rabbit",
  "data": [
    {"smiles": "[Mg+2].[OH-].[OH-]", "note": "[Mg(OH)2, magnesium hydroxide]", "values": [
      {"measurement": "Toxicity or discomfort", "setting": "rabbit model, high-concentration suspension diluted to 400 HU", "value": "without observing obvious toxicity or discomfort"},
      {"measurement": "Differentiation from iodinated intravascular contrast, two-material decomposition", "setting": "rabbit, dual energy CT", "value": "without interfering signal from the intravascular iodinated contrast material"}
    ]}
  ]
}
